The series relates to CCRIS mutagenicity, Ames/micronucleus/aberration tests. Nature of the series: CCRIS mutagenicity studies.

The source made the active and inactive calls. The rule behind the calls is not given here.

As for `Clc1ccc(N=Nc2ccc(Cl)c(Cl)c2)cc1Cl`, the mutagenic call (Test System: AMES SALMONELLA TYPHIMURIUM, Strain/Indicator: TA97, Metabolic Activation: NONE, Method: STANDARD PLATE) is “inactive; negative”; the mutagenic call (Test System: AMES SALMONELLA TYPHIMURIUM, Strain/Indicator: TA97, Metabolic Activation: RAT, LIVER, S-9, AROCLOR 1254, Method: STANDARD PLATE) is “inactive; negative”; the mutagenic call (Test System: AMES SALMONELLA TYPHIMURIUM, Strain/Indicator: TA98, Metabolic Activation: NONE, Method: STANDARD PLATE) is “inactive; negative”; the mutagenic call (Test System: AMES SALMONELLA TYPHIMURIUM, Strain/Indicator: TA98, Metabolic Activation: RAT, LIVER, S-9, AROCLOR 1254, Method: STANDARD PLATE) was “inactive; negative”; the mutagenic call (Test System: AMES SALMONELLA TYPHIMURIUM, Strain/Indicator: TA100, Metabolic Activation: NONE, Method: STANDARD PLATE) is “inactive; negative”; the mutagenic call (Test System: AMES SALMONELLA TYPHIMURIUM, Strain/Indicator: TA100, Metabolic Activation: RAT, LIVER, S-9, AROCLOR 1254, Method: STANDARD PLATE) was “inactive; negative”. Further, the mutagenic call by setting is: (Test System: AMES SALMONELLA TYPHIMURIUM, Strain/Indicator: TA104, Metabolic Activation: NONE, Method: STANDARD PLATE) “inactive; negative”; (Test System: AMES SALMONELLA TYPHIMURIUM, Strain/Indicator: TA104, Metabolic Activation: RAT, LIVER, S-9, AROCLOR 1254, Method: STANDARD PLATE) “inactive; negative”; (Test System: CHINESE HAMSTER OVARY, Strain/Indicator: CHO-K1-BH4 (HGPRT), Metabolic Activation: NONE) “inactive; negative”; (Test System: CHINESE HAMSTER OVARY, Strain/Indicator: CHO-K1-BH4 (HGPRT), Metabolic Activation: RAT, LIVER, S-9, AROCLOR 1254) “inactive; negative”; (Test System: UDS RODENT HEPATOCYTES, Strain/Indicator: THY INCORP (NON-S-PHASE), Method: LIQUID SCINTILLATION COUNTING) “active; positive”.

For the origin of these results see PubChem BioAssay AID1259407 (Chemical Carcinogenesis Research Information System (CCRIS), 2018).
